Experimental data reported in PMC11783601, “Analogue-Sensitive Inhibition of Histone Demethylases Uncovers Member-Specific Function in Ribosomal Protein Synthesis” (Journal of the American Chemical Society, 2025).

Legend:
[1] = test system: asKDM4 mutants (KDM4A-F185A, KDM4C-F187A, KDM4D-F189A and KDM4E-F186A); experiment: Demethylation of extracted full-length histones, Western blot with H3K9me3 antibody; assay type: biochemical, human; conditions: histones extracted from HEK293T cells, 20 µM (Fig S19 legend)
Description: We next tested the inhibitory potential of 6 against these proteins using H3K9me3 peptide substrate and analyzed it by MALDI-MS. […] We subsequently examined the ability of asKDM4 variants to demethylate full-length histones extracted from mammalian cells. HEK293T cells were cultured in the presence of 10 μM n-octyl IOX1, a broad-spectrum inhibitor of demethylases,[41],[42] to generate a hypermethylated proteome (Figure S19). The extracted histone was incubated with the as variants individually, each with or without 6, and the extent of demethylation was analyzed by Western blot using the H3K9me3-specific antibody. […]
directly to ice and 2M Ammonium Acetate was added and left on ice for 5 minutes. […]
The supernatant was transferred to a fresh 1.5 mL centrifuge tube, 132 µL of TCA was added dropwise to precipitate the histones and incubated on ice for 30 mins to 1.5 hr. […] 1 µL of histone extracts was loaded on a 15% gel with the BSA standards to quantify the amount of H3 for the assay. […]
(NH4)2Fe(SO4)2, 2 mM L-ascorbic acid and 50 mM Tris pH 8.0 were incubated with or without 150 µM of L-Leu NOG for 5 minutes on ice, after which substrate (300 µM 2OG and 2 µg of Histone extract) was added to the tube. The assay was incubated at 37 °C for 1.5 hours, the samples were analyzed via western blotting using H3K9me3 specific antibody. […]

KDM8 (JMJD5) = target: T1, KDM8 (JMJD5) (Homo sapiens, UniProt Q8N371); experiment: MALDI-TOF assay for JMJD5 arginine hydroxylation of peptide; assay type: biochemical; conditions: peptide substrate
T1 construct: we recombinantly expressed the catalytic domains of 12 wild type dioxygenases; made in house
T1 sequence (Q8N371 271-416 limits assumed): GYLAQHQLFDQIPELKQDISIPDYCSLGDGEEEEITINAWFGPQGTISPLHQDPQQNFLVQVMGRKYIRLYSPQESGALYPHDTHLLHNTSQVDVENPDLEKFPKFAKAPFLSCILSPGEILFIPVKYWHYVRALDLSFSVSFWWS

Structure (SMILES): CC(C)CC(NC(=O)C(=O)O)C(=O)O (stereo not drawn) [compound 6, N-oxalyl leucine]
- inhibition of demethylation of full-length histone H3 by asKDM4 mutants [1]: noticeably inhibited
- inhibition of demethylation of full-length histone H3 by asKDM4 mutants ([1]; listed as NOL 6): inhibits the mutants
- inhibition of JMJD5 (KDM8 (JMJD5)): No inhibition
